# In patent US20250326744A1, “PIPERAZINE DERIVATIVE OR SALT THEREOF, AND PHARMACEUTICAL COMPOSITION” (priority 2022, published 2025):
# Structures can show the parent of a compound that is named as a salt.
# How the values were obtained:
# mexB (PA) strain = assay: Combinational effect with antibacterial agent against Pseudomonas aeruginosa (Test Examples 2 and 4): mexB (PA) strain with LVFX, TC or AZT at 1/4 MIC, EC99; type: cell-based; settings: mexB (PA) strain, Test Example 4; for EC99, combinational effect with AZT, mexB (PA): combined with AZT at 1/4 MIC; for EC99, combinational effect with LVFX, mexB (PA): combined with LVFX at 1/4 MIC; for EC99, combinational effect with TC, mexB (PA): combined with TC at 1/4 MIC
# In short: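 P. aeruginosa mexB (PA) strain, lacking MexCD-OprJ, MexEF-OprN and MexXY and overexpressing MexAB-OprM, grown 16–20 h in CAMHB (10^4–5 CFU/well) with LVFX, TC or AZT at ¼ MIC plus test compound at 0–800 μM. Growth read as OD595; EC99 is the lowest compound concentration giving ≥99% growth inhibition.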
# S-3769 strain = assay: Combinational effect with antibacterial agent against Pseudomonas aeruginosa (Test Examples 2 and 4): S-3769 strain with AMK or GM at 1/4 MIC, EC99; type: cell-based; settings: S-3769 strain, Test Example 4; for EC99, combinational effect with AMK, S-3769 strain: combined with AMK at 1/4 MIC; for EC99, combinational effect with GM, S-3769 strain: combined with GM at 1/4 MIC
# In short: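 P. aeruginosa S-3769 (clinical isolate, MexY overexpressed) grown 16–20 h in CAMHB, 10^4 to 5 CFU/well, with AMK or GM at ¼ MIC plus test compound 0–800 μM. Growth read as OD595; EC99 is the lowest compound concentration giving ≥99% growth inhibition.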
Structure (SMILES),"EC99, combinational effect with AZT, mexB (PA) (mexB (PA) strain)","EC99, combinational effect with LVFX, mexB (PA) (mexB (PA) strain)","EC99, combinational effect with TC, mexB (PA) (mexB (PA) strain)","EC99, combinational effect with AMK, S-3769 strain (S-3769 strain)","EC99, combinational effect with GM, S-3769 strain (S-3769 strain)"
"COc1c(CN2CCN(C(=O)[C@H](N)C3CCN(CCc4cc(Cl)ccc4-c4ccccc4)CC3)CC2)cccc1B(O)O [Example 537, Hydrobromide of (R)-(3-((4-(2-amino-2-(1-(2-(4-chloro-[1,1-biphenyl]-2-yl)ethyl)piperidin-4-yl)acetyl)piperazin-1-yl)methyl)-2-methoxyphenyl)boronic acid]",C (100 μM<EC99),C (100 μM<EC99),B (25 μM<EC99≤100 μM),B (25 μM<EC99≤100 μM),A (12.5 μM<EC99≤25 μM)
"CSc1ccccc1CN1CCN(C(=O)[C@H](N)C2CCN(CCc3cscc3-c3ccccc3)CC2)CC1 [Example 539, Hydrobromide of (R)-2-amino-1-(4-(2-(methylthio)benzyl)piperazin-1-yl)-2-(1-(2-(4-phenylthiophen-3-yl)ethyl)piperidin-4-yl)ethan-1-one]",B (25 μM<EC99≤100 μM),B (25 μM<EC99≤100 μM),B (25 μM<EC99≤100 μM),B (25 μM<EC99≤100 μM),B (25 μM<EC99≤100 μM)
"CCOc1cccc(F)c1CN1CCN(C(=O)[C@H](N)C2CCN(CCc3cscc3-c3ccccc3)CC2)CC1 [Example 540, Hydrobromide of (R)-2-amino-1-(4-(2-ethoxy-6-fluorobenzyl)piperazin-1-yl)-2-(1-(2-(4-phenylthiophen-3-yl)ethyl)piperidin-4-yl)ethan-1-one]",C (100 μM<EC99),B (25 μM<EC99≤100 μM),B (25 μM<EC99≤100 μM),A (12.5 μM<EC99≤25 μM),A (12.5 μM<EC99≤25 μM)
"CCSc1cc(F)ccc1CN1CCN(C(=O)[C@H](N)C2CCN(CCc3ncccc3-c3ccccc3)CC2)CC1 [Example 542, Hydrobromide of (R)-2-amino-1-(4-(2-(ethylthio)-4-fluorobenzyl)piperazin-1-yl)-2-(1-(2-(3-phenylpyridin-2-yl)ethyl)piperidin-4-yl)ethan-1-one]",B (25 μM<EC99≤100 μM),B (25 μM<EC99≤100 μM),B (25 μM<EC99≤100 μM),B (25 μM<EC99≤100 μM),B (25 μM<EC99≤100 μM)
"CCSc1cc(F)ccc1CN1CCN(C(=O)[C@H](N)C2CCN(CCc3cc(Cl)ccc3-c3cccc(N)c3)CC2)CC1 [Example 544, hydrobromide of (R)-2-amino-2-(1-(2-(3′-amino-4-chloro-[1,1′-biphenyl]-2-yl)ethyl)piperidin-4-yl)-1-(4-(2-(ethylthio)-4-fluorobenzyl)piperazin-1-yl)ethan-1-one]",S (EC99≤12.5 μM),S (EC99≤12.5 μM),S (EC99≤12.5 μM),A (12.5 μM<EC99≤25 μM),S (EC99≤12.5 μM)
"CCOc1cccc(F)c1CN1CCN(C(=O)[C@H](N)C2CCN(CCc3cc(Cl)ccc3-c3ccoc3)CC2)CC1 [Example 547, Hydrobromide of (R)-2-amino-2-(1-(5-chloro-2-(furan-3-yl)phenethyl)piperidin-4-yl)-1-(4-(2-ethoxy-6-fluorobenzyl)piperazin-1-yl)ethan-1-one]",B (25 μM<EC99≤100 μM),B (25 μM<EC99≤100 μM),C (100 μM<EC99),S (EC99≤12.5 μM),S (EC99≤12.5 μM)
"CCOc1cccc(F)c1CN1CCN(C(=O)[C@H](N)C2CCN(CCc3cc(Cl)ccc3-c3cccc4ccccc34)CC2)CC1 [Example 548, Hydrobromide of (R)-2-amino-2-(1-(5-chloro-2-(naphthalen-1-yl)phenethyl)piperidin-4-yl)-1-(4-(2-ethoxy-6-fluorobenzyl)piperazin-1-yl)ethan-1-one]",A (12.5 μM<EC99≤25 μM),S (EC99≤12.5 μM),A (12.5 μM<EC99≤25 μM),S (EC99≤12.5 μM),A (12.5 μM<EC99≤25 μM)
"CCOc1cccc(F)c1CN1CCN(C(=O)[C@H](N)C2CCN(CCc3cc(Cl)ccc3-c3coc4ccccc34)CC2)CC1 [Example 549, Hydrobromide of (R)-2-amino-2-(1-(2-(benzofuran-3-yl)-5-chlorophenethyl)piperidin-4-yl)-1-(4-(2-ethoxy-6-fluorobenzyl)piperazin-1-yl)ethan-1-one]",A (12.5 μM<EC99≤25 μM),A (12.5 μM<EC99≤25 μM),A (12.5 μM<EC99≤25 μM),A (12.5 μM<EC99≤25 μM),A (12.5 μM<EC99≤25 μM)
"CCOc1cccc(F)c1CN1CCN(C(=O)[C@H](N)C2CCN(CCc3cc(Cl)ccc3-c3csc4ccccc34)CC2)CC1 [Example 550, Hydrobromide of (R)-2-amino-2-(1-(2-(benzo[b]thiophen-3-yl)-5-chlorophenethyl)piperidin-4-yl)-1-(4-(2-ethoxy-6-fluorobenzyl)piperazin-1-yl)ethan-1-one]",A (12.5 μM<EC99≤25 μM),S (EC99≤12.5 μM),A (12.5 μM<EC99≤25 μM),A (12.5 μM<EC99≤25 μM),A (12.5 μM<EC99≤25 μM)
"CSc1ccccc1CN1CCN(C(=O)[C@H](N)C2CCN(CCc3cc(Cl)ccc3-c3cccc(F)c3)CC2)CC1 [Example 551, Hydrobromide of (R)-2-amino-2-(1-(2-(4-chloro-3′-fluoro-[1,1-biphenyl]-2-yl)ethyl)piperidin-4-yl)-1-(4-(2-(methylthio)benzyl)piperazin-1-yl)ethan-1-one]",S (EC99≤12.5 μM),S (EC99≤12.5 μM),S (EC99≤12.5 μM),B (25 μM<EC99≤100 μM),A (12.5 μM<EC99≤25 μM)
"CSc1ccccc1CN1CCN(C(=O)[C@H](N)C2CCN(CCc3cc(Cl)ccc3C3=CCCNC3)CC2)CC1 [Example 553, Hydrobromide of (R)-2-amino-2-(1-(5-chloro-2-(1,2,5,6-tetrahydropyridin-3-yl)phenethyl)piperidin-4-yl)-1-(4-(2-(methylthio)benzyl)piperazin-1-yl)ethan-1-one]",A (12.5 μM<EC99≤25 μM),S (EC99≤12.5 μM),S (EC99≤12.5 μM),S (EC99≤12.5 μM),S (EC99≤12.5 μM)
"CCSc1cc(F)ccc1CN1CCN(C(=O)[C@H](N)C2CCN(CCc3cc(Cl)ccc3-c3cccc(F)c3)CC2)CC1 [Example 554, Hydrobromide of (R)-2-amino-2-(1-(2-(4-chloro-3′-fluoro-[1,1-biphenyl]-2-yl)ethyl)piperidin-4-yl)-1-(4-(2-(ethylthio)-4-fluorobenzyl)piperazin-1-yl)ethan-1-one]",S (EC99≤12.5 μM),S (EC99≤12.5 μM),S (EC99≤12.5 μM),A (12.5 μM<EC99≤25 μM),S (EC99≤12.5 μM)
"CSc1ccccc1CN1CCN(C(=O)[C@H](N)C2CCN(CCc3cc(Cl)ccc3-c3ccccc3N)CC2)CC1 [Example 556, Hydrobromide of (R)-2-amino-2-(1-(2-(2′-amino-4-chloro-[1,1-biphenyl]-2-yl)ethyl)piperidin-4-yl)-1-(4-(2-(methylthio)benzyl)piperazin-1-yl)ethan-1-one]",S (EC99≤12.5 μM),S (EC99≤12.5 μM),S (EC99≤12.5 μM),B (25 μM<EC99≤100 μM),B (25 μM<EC99≤100 μM)
"CCOc1cccc(F)c1CN1CCN(C(=O)[C@H](N)C2CCN(CCc3cc(Cl)ccc3-c3cccc(N)c3F)CC2)CC1 [Example 557, Hydrobromide of (R)-2-amino-2-(1-(2-(3′-amino-4-chloro-2′-fluoro-[1,1-biphenyl]-2-yl)ethyl)piperidin-4-yl)-1-(4-(2-ethoxy-6-fluorobenzyl)piperazin-1-yl)ethan-1-one]",S (EC99≤12.5 μM),S (EC99≤12.5 μM),S (EC99≤12.5 μM),A (12.5 μM<EC99≤25 μM),A (12.5 μM<EC99≤25 μM)
